According to US4212866A, “Pharmaceutically active derivatives of 9-[3-(4-amino-piperidino)-propyl]-adenines” (Boehringer Mannheim GmbH, priority 1978, dated 1980):

system: passive cutaneous anaphylactic reaction; experiment: inhibition of the passive cutaneous anaphylactic (PCA) reaction in rats induced by reaginic antibodies to egg albumin; format: in vivo; details: Rattus norvegicus, iv, 0.75 mg/kg, intravenously immediately before antigen
Procedure: Diethylcarbamazin, i.e. 1-diethylcarbamoyl-4-methylpiperazine, was used as a comparison compound. Specifically, tests were run as follows:
Serum containing reaginic (IgE-like) antibody to egg albumin was prepared by injecting rats intramuscularly with 0.1 ml of a solution of the antigen (10 mg/ml) in saline together with 0.5 ml of Bordetella pertussis vaccine (Behring; 2×10^10 organisms/ml). 9-14 Days later the animals were bled from the abdominal aorta; the serum was pooled and stored at -20° C. until required. The titer of the serum, i.e. the highest dilution inducing passive cutaneous anaphylaxis (PCA) in the rat following a 48-hour latent period, was between 1:8 and 1:32. For use in these experiments the serum was diluted 1:24.
The animals were anesthetized with 2,2-dichloro-1,1-difluoroethyl-methyl ether, sold under the trademark Penthrane, and were sensitized by injecting 0.1 ml of the antiserum into the shaved abdominal flanks. After 48 hours for reaginic PCA, the animals were given an intravenous injection of 1 ml of saline solution containing 0.5% by weight of egg albumin and 0.25% by weight of Evans Blue.
After having killed and exsanguinated the animals, the size in square millimeters and the intensity, in arbitary scores, of the resulting blue spot were determined. The product of these two parameters was used to determine the degree of the reaction and the degree of reaction with no active material was taken as the standard against which to measure % inhibition of the anaphylactic reaction.
6 Animals were used per dose level and for control.
The test material was injected intravenously immediately before the antigen, using a solution in water containing 0.5% HCl and 2% of dimethylformamide. For comparative purposes there was also tested diethylcarbamoyl-4-methylpiperazine sold under the tradename Diethylcarbamazin. The volumes of the injections were varied to give the indicated dosage of the active material. The results obtained were as follows:
PCA Reaction in Rats Induced by Reaginic Antibodies
(Ovalbumin 2×cryst, and Bord. pertussis 2×10^10) Active material applied intravenously immediately before antigen.

First: CCCCNc1ncnc2c1ncn2CCCN1CCC(NC(=O)c2ccccc2)CC1 [Example 2k, N^6-n-Butyl-9-[3-(4-Benzamido-piperidino)-propyl]-adenine]
Second: O=C(NC1CCN(CCCn2cnc3c(NCCO)ncnc32)CC1)c1ccccc1 [Example 2j, N^6-(2-Hydroxyethyl)-9-[3-(4-benzamido-piperidino)-propyl] adenine]
The inhibition in vivo at 0.75 mg/kg of the first is lower: 41% for the first, 44% for the second.

same assay, conditions: Rattus norvegicus, iv, 1.5 mg/kg, intravenously immediately before antigen

Going from `Nc1ncnc2c1ncn2CCCN1CCC(NC(=O)Cc2ccccc2)CC1` [Example 4d, 9-{3-[4-(Phenyl-acetamido)-piperidino]-propyl}-adenine] to `Cc1ccccc1C(=O)NC1CCN(CCCn2cnc3c(N)ncnc32)CC1` [Example 2e, 9-{3-[4-(2-Methyl-benzamido)-piperidino]-propyl}-adenine], the inhibition in vivo at 1.5 mg/kg rises from 30% to 39%.

Going from `Nc1ncnc2c1ncn2CCCN1CCC(NC(=O)c2ccc(Cl)cc2)CC1` [Example 4a, 9-{3-[4-(4-Chlorobenzamido)-piperidino]-propyl}-adenine] to `Nc1ncnc2c1ncn2CCCN1CCC(NC(=O)c2ccc(F)cc2)CC1` [Example 2b, 9-{3-[4-(4-Fluorobenzamido)-piperidino]-propyl}-adenine], the inhibition in vivo at 1.5 mg/kg falls from 80% to 65%.

First: O=C(NC1CCN(CCCn2cnc3c(N4CCCCC4)ncnc32)CC1)c1ccccc1 [Example 2m, 6-Piperidino-9-[3-(4-benzamido-piperidino)-propyl]-purine]
Second: CN(C)c1ncnc2c1ncn2CCCN1CCC(NC(=O)c2ccccc2)CC1 [Example 2l, 6-Dimethylamino-9-[3-(4-benzamido-piperidino)-propyl]-purine]
The inhibition in vivo at 1.5 mg/kg of the first is lower: 36% for the first, 43% for the second.

Compared with `Cc1ccc(C(=O)NC2CCN(CCCn3cnc4c(N)ncnc43)CC2)cc1` [Example 2f, 9-{-[4-(4-Methyl-benzamido)-piperidio]-propyl}-adenine], `Nc1ncnc2c1ncn2CCCN1CCC(NC(=O)c2ccco2)CC1` [Example 4f, 9-{3-[4-(Furan-2-carbonylamido)-piperidino]-propyol}-adenine] is lower in inhibition in vivo at 1.5 mg/kg: 74% for the first, 44% for the second.

same assay, conditions: Rattus norvegicus, iv, 60.0 mg/kg, intravenously immediately before antigen

Work on `CCN(CC)C(=O)N1CCN(C)CC1` [Diethylcarbamazin, 1-diethylcarbamoyl-4-methylpiperazine, reference compound] yielded an inhibition in vivo at 60 mg/kg of 58%.
